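All cell lines were grown in 96-well plates and treated with compound for 48 hours. Here, GI50 denotes the concentration required for 50% inhibition of growth.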 Calls of active or inactive are those of the source. Rule as the data show it: active = GI50 up to about 1.1 µM and inactive = higher.
Assays:
Assay in all cases: NCI anticancer screen, dose series, 48 h
CCRF-CEM = tested on: CCRF-CEM
SK-MEL-5 = tested on: SK-MEL-5
MOLT-4 = tested on: MOLT-4
NCI-H460 = tested on: NCI-H460
RPMI-8226 = tested on: RPMI-8226
SNB-19 = tested on: SNB-19
T47D = tested on: T47D
SF-539 = tested on: SF-539
U-251 = tested on: U-251
PC-3 = tested on: PC-3
HCT-116 = tested on: HCT-116
SF-268 = tested on: SF-268
MDA-MB-231 = tested on: MDA-MB-231
RXF 393 = tested on: RXF 393
ACHN = tested on: ACHN
HCC 2998 = tested on: HCC 2998
OVCAR-8 = tested on: OVCAR-8
UACC-62 = tested on: UACC-62
COLO 205 = tested on: COLO 205
DU-145 = tested on: DU-145
TK-10 = tested on: TK-10
SK-MEL-2 = tested on: SK-MEL-2
SK-MEL-28 = tested on: SK-MEL-28
UO-31 = tested on: UO-31
EKVX = tested on: EKVX
SN12C = tested on: SN12C
NCI/ADR-RES = tested on: NCI/ADR-RES
MDA-N = tested on: MDA-N
786-0 = tested on: 786-0
HCT-15 = tested on: HCT-15
HOP-62 = tested on: HOP-62
MDA-MB-435 = tested on: MDA-MB-435
MCF7 = tested on: MCF7
A549 = tested on: A549
SF-295 = tested on: SF-295
HT-29 = tested on: HT-29
K562 = tested on: K562
OVCAR-4 = tested on: OVCAR-4
CAKI-1 = tested on: CAKI-1
SR = tested on: SR
NCI-H522 = tested on: NCI-H522
SW-620 = tested on: SW-620
OVCAR-5 = tested on: OVCAR-5
LOX IMVI = tested on: LOX IMVI
IGROV-1 = tested on: IGROV-1
OVCAR-3 = tested on: OVCAR-3
NCI-H226 = tested on: NCI-H226
SK-OV-3 = tested on: SK-OV-3
UACC-257 = tested on: UACC-257
NCI-H23 = tested on: NCI-H23
SNB-75 = tested on: SNB-75
Hs-578T = tested on: Hs-578T
A498 = tested on: A498
Malme-3M = tested on: Malme-3M
KM12 = tested on: KM12
HOP-92 = tested on: HOP-92
M14 = tested on: M14
HL-60 = tested on: HL-60

COC(=O)C1Cc2c([nH]c3ccccc23)-c2[nH]c3ccccc3c2CC(NC(C)=O)C(=O)N2CCCC2C(=O)N1 (stereo unspecified)
GI50 (CCRF-CEM): 93.5 µM (inactive)
GI50 (SK-MEL-5): > 100 µM (inactive)
GI50 (MOLT-4): 66.7 µM (inactive)
GI50 (NCI-H460): > 100 µM (inactive)
GI50 (RPMI-8226): 56.8 µM (inactive)
GI50 (SNB-19): > 100 µM (inactive)
GI50 (T47D): > 100 µM (inactive)
GI50 (SF-539): > 100 µM (inactive)
GI50 (U-251): > 100 µM (inactive)
GI50 (PC-3): > 100 µM (inactive)
GI50 (HCT-116): > 100 µM (inactive)
GI50 (SF-268): > 100 µM (inactive)
GI50 (MDA-MB-231): > 100 µM (inactive)
GI50 (RXF 393): > 100 µM (inactive)
GI50 (ACHN): > 100 µM (inactive)
GI50 (HCC 2998): > 100 µM (inactive)
GI50 (OVCAR-8): > 100 µM (inactive)
GI50 (UACC-62): > 100 µM (inactive)
GI50 (COLO 205): 53.1 µM (inactive)
GI50 (DU-145): > 100 µM (inactive)
GI50 (TK-10): > 100 µM (inactive)
GI50 (SK-MEL-2): > 100 µM (inactive)
GI50 (SK-MEL-28): > 100 µM (inactive)
GI50 (UO-31): > 100 µM (inactive)
GI50 (EKVX): > 100 µM (inactive)
GI50 (SN12C): > 100 µM (inactive)
GI50 (NCI/ADR-RES): > 100 µM (inactive)
GI50 (MDA-N): > 100 µM (inactive)
GI50 (786-0): > 100 µM (inactive)
GI50 (HCT-15): > 100 µM
GI50 (HOP-62): > 100 µM (inactive)
GI50 (MDA-MB-435): > 100 µM (inactive)
GI50 (MCF7): > 100 µM (inactive)
GI50 (A549): > 100 µM (inactive)
GI50 (SF-295): > 100 µM (inactive)
GI50 (HT-29): > 100 µM (inactive)
GI50 (K562): > 100 µM (inactive)
GI50 (OVCAR-4): > 100 µM (inactive)
GI50 (CAKI-1): > 100 µM (inactive)
GI50 (SR): > 100 µM (inactive)
GI50 (NCI-H522): 36.1 µM (inactive)
GI50 (SW-620): > 100 µM (inactive)
GI50 (OVCAR-5): > 100 µM (inactive)
GI50 (LOX IMVI): > 100 µM (inactive)
GI50 (IGROV-1): 24.8 µM (inactive)
GI50 (OVCAR-3): > 100 µM (inactive)
GI50 (NCI-H226): 0.176 µM (active)
GI50 (SK-OV-3): > 100 µM (inactive)
GI50 (UACC-257): > 100 µM (inactive)
GI50 (NCI-H23): > 100 µM (inactive)
GI50 (SNB-75): > 100 µM (inactive)
GI50 (Hs-578T): > 100 µM (inactive)

CNC(=O)c1nnn(C2CCCCC2)c1S
GI50 (CCRF-CEM): > 100 µM (inactive)
GI50 (SK-MEL-5): > 100 µM (inactive)
GI50 (MOLT-4): > 100 µM (inactive)
GI50 (NCI-H460): > 100 µM (inactive)
GI50 (RPMI-8226): > 100 µM (inactive)
GI50 (SNB-19): > 100 µM (inactive)
GI50 (T47D): > 100 µM (inactive)
GI50 (SF-539): 6.11 µM (inactive)
GI50 (U-251): > 100 µM (inactive)
GI50 (PC-3): > 100 µM (inactive)
GI50 (HCT-116): > 100 µM (inactive)
GI50 (A498): > 100 µM (inactive)
GI50 (SF-268): > 100 µM (inactive)
GI50 (MDA-MB-231): > 100 µM (inactive)
GI50 (RXF 393): > 100 µM (inactive)
GI50 (ACHN): > 100 µM (inactive)
GI50 (HCC 2998): > 100 µM (inactive)
GI50 (OVCAR-8): > 100 µM (inactive)
GI50 (UACC-62): > 100 µM (inactive)
GI50 (COLO 205): > 100 µM (inactive)
GI50 (DU-145): > 100 µM (inactive)
GI50 (Malme-3M): > 100 µM (inactive)
GI50 (KM12): > 100 µM (inactive)
GI50 (SK-MEL-2): > 100 µM (inactive)
GI50 (SK-MEL-28): > 100 µM (inactive)
GI50 (UO-31): > 100 µM (inactive)
GI50 (HOP-92): > 100 µM (inactive)
GI50 (EKVX): > 100 µM (inactive)
GI50 (SN12C): > 100 µM (inactive)
GI50 (NCI/ADR-RES): > 100 µM (inactive)
GI50 (MDA-N): > 100 µM (inactive)
GI50 (786-0): > 100 µM (inactive)
GI50 (HCT-15): > 100 µM
GI50 (HOP-62): > 100 µM (inactive)
GI50 (MDA-MB-435): > 100 µM (inactive)
GI50 (MCF7): > 100 µM (inactive)
GI50 (A549): > 100 µM (inactive)
GI50 (SF-295): > 100 µM (inactive)
GI50 (HT-29): > 100 µM (inactive)
GI50 (K562): > 100 µM (inactive)
GI50 (M14): > 100 µM (inactive)
GI50 (OVCAR-4): > 100 µM (inactive)
GI50 (CAKI-1): > 100 µM (inactive)
GI50 (SR): > 100 µM (inactive)
GI50 (NCI-H522): > 100 µM (inactive)
GI50 (SW-620): > 100 µM (inactive)
GI50 (OVCAR-5): > 100 µM (inactive)
GI50 (LOX IMVI): > 100 µM (inactive)
GI50 (IGROV-1): > 100 µM (inactive)
GI50 (OVCAR-3): 0.0885 µM (active)
GI50 (NCI-H226): > 100 µM (inactive)
GI50 (SK-OV-3): > 100 µM (inactive)
GI50 (HL-60): > 100 µM (inactive)
GI50 (UACC-257): > 100 µM (inactive)
GI50 (NCI-H23): > 100 µM (inactive)
GI50 (SNB-75): > 100 µM (inactive)
GI50 (Hs-578T): > 100 µM (inactive)

CCOC(=O)c1ccc(Nc2c3c(nc4ccccc24)CCCC3)cc1
GI50 (CCRF-CEM): 14.2 µM (inactive)
GI50 (SK-MEL-5): > 42.5 µM (inactive)
GI50 (MOLT-4): 3.22 µM (inactive)
GI50 (NCI-H460): 43.2 µM (inactive)
GI50 (RPMI-8226): > 100 µM (inactive)
GI50 (SNB-19): 41 µM (inactive)
GI50 (T47D): 8.51 µM (inactive)
GI50 (SF-539): 48.9 µM (inactive)
GI50 (U-251): 22.9 µM (inactive)
GI50 (PC-3): > 47.5 µM (inactive)
GI50 (HCT-116): > 34.3 µM (inactive)
GI50 (A498): 15.3 µM (inactive)
GI50 (SF-268): 76.2 µM (inactive)
GI50 (MDA-MB-231): 26.6 µM (inactive)
GI50 (RXF 393): 33.9 µM (inactive)
GI50 (ACHN): > 91.4 µM (inactive)
GI50 (HCC 2998): > 56.4 µM (inactive)
GI50 (OVCAR-8): 44.7 µM (inactive)
GI50 (UACC-62): 30.3 µM (inactive)
GI50 (COLO 205): > 100 µM (inactive)
GI50 (DU-145): > 57.9 µM (inactive)
GI50 (TK-10): > 74.1 µM (inactive)
GI50 (KM12): 3.54 µM (inactive)
GI50 (SK-MEL-2): > 86.9 µM (inactive)
GI50 (SK-MEL-28): > 100 µM (inactive)
GI50 (UO-31): > 34.3 µM (inactive)
GI50 (HOP-92): 18.1 µM (inactive)
GI50 (EKVX): > 54.2 µM (inactive)
GI50 (SN12C): > 100 µM (inactive)
GI50 (NCI/ADR-RES): > 30.3 µM (inactive)
GI50 (MDA-N): 1.76 µM (inactive)
GI50 (786-0): 29.2 µM (inactive)
GI50 (HCT-15): 7.13 µM
GI50 (HOP-62): 10.6 µM (inactive)
GI50 (MDA-MB-435): 1.77 µM (inactive)
GI50 (MCF7): 12 µM (inactive)
GI50 (A549): > 38.6 µM (inactive)
GI50 (SF-295): 17.1 µM (inactive)
GI50 (HT-29): 2.89 µM (inactive)
GI50 (K562): 3.74 µM (inactive)
GI50 (M14): > 34.2 µM (inactive)
GI50 (OVCAR-4): 46.7 µM (inactive)
GI50 (CAKI-1): 54.5 µM (inactive)
GI50 (SR): 25.4 µM (inactive)
GI50 (NCI-H522): 3.62 µM (inactive)
GI50 (SW-620): 4.2 µM (inactive)
GI50 (OVCAR-5): > 60 µM (inactive)
GI50 (LOX IMVI): > 21.2 µM (inactive)
GI50 (IGROV-1): 4.91 µM (inactive)
GI50 (OVCAR-3): > 100 µM (inactive)
GI50 (NCI-H226): > 100 µM (inactive)
GI50 (SK-OV-3): > 66.2 µM (inactive)
GI50 (HL-60): 3.22 µM (inactive)
GI50 (UACC-257): > 86.1 µM (inactive)
GI50 (NCI-H23): > 47.9 µM (inactive)
GI50 (SNB-75): 6.73 µM (inactive)
GI50 (Hs-578T): 27.5 µM (inactive)

From ChEMBL document CHEMBL1201862, “PubChem BioAssay data set” (2004)
